The text below walks through data of US20140066389A1, “METHOD AND PHARMACEUTICAL TO TREAT SPINAL DISCS” (priority 2000, published 2014).

This assay relates to spinal disc. Put plainly: Disc injections containing only one constituent. As to conditions: injections with only one of glucosamine and chondroitin sulfate. The assay is classed as in vivo. From the text:
Common to all formulations according to this invention is the inclusion, in an injectable tolerated by the spinal disc, of both glucosamine and chondroitin sulfate (in a buffered injectable solution).

With `N[C@H]1C(O)O[C@H](CO)[C@@H](O)[C@@H]1O` (some centres unmarked) [glucosamine], the “value of the injection” value was “without value”.

In the case of chondroitin sulfate, the “value of the injection” value was “without value”.
